Assay [1] addresses T1, HiBit-BRG1 fusion protein (Homo sapiens, UniProt P51532).
T1 construct: expressed in transfected cells
Description: HiBiT-BRG1 cell-based degradation assay (Nano-Glo HiBiT lytic detection, 24 h). Particulars: HeLa cell line expressing HiBit-BRG1 and LgBit; for Dmax: read-out: BRG1 HiBit Degradation Maximum (%); for DC50: read-out: BRMG1 HiBit Degradation IC50. On the procedure: Procedure: A stable HeLa cell line expressing HiBiT-BRM was generated. On day 0, 5000 cells were seeded in 40 μL of media into each well of 384-well cell culture plates. […] Subsequently plates were incubated for 24 h in a standard tissue culture incubator and equilibrated at room temperature for 15 minutes. Nano-GB HiBiT Lytic Detection System (Promega N3050) reagent was freshly prepared and 20 ul was added to each well. Upon addition of this LgBit-containing reagent, the HiBiT and LgBiT proteins associate to form the luminescent NanoBiT luciferase. The plates were shaken for 10 minutes at room temperature and the bioluminescence read using an EnVision plate reader (PerkinElmer).
For measurement of BRG1 degradation, a stable HeLa cell line expressing HiBit-BRG1 and LgBit was generated. The same protocol as above was then followed.
(§1) The degradation % was calculated using the following formula: % degradation=100%−100%×(Lumsample−LuMLC)/(LuMHC−LuMLC). DMSO treated cells are employed as High Control (HC) and 2 μM of a known BRM/BRG1 degrader standard treated cells are employed as Low Control (LC).

The target in a further assay is T2, HiBit-BRM fusion protein (Homo sapiens, UniProt P51531).
T2 construct: expressed in transfected cells
T2 sequence (P51531 whole entry, the tested form may be a part): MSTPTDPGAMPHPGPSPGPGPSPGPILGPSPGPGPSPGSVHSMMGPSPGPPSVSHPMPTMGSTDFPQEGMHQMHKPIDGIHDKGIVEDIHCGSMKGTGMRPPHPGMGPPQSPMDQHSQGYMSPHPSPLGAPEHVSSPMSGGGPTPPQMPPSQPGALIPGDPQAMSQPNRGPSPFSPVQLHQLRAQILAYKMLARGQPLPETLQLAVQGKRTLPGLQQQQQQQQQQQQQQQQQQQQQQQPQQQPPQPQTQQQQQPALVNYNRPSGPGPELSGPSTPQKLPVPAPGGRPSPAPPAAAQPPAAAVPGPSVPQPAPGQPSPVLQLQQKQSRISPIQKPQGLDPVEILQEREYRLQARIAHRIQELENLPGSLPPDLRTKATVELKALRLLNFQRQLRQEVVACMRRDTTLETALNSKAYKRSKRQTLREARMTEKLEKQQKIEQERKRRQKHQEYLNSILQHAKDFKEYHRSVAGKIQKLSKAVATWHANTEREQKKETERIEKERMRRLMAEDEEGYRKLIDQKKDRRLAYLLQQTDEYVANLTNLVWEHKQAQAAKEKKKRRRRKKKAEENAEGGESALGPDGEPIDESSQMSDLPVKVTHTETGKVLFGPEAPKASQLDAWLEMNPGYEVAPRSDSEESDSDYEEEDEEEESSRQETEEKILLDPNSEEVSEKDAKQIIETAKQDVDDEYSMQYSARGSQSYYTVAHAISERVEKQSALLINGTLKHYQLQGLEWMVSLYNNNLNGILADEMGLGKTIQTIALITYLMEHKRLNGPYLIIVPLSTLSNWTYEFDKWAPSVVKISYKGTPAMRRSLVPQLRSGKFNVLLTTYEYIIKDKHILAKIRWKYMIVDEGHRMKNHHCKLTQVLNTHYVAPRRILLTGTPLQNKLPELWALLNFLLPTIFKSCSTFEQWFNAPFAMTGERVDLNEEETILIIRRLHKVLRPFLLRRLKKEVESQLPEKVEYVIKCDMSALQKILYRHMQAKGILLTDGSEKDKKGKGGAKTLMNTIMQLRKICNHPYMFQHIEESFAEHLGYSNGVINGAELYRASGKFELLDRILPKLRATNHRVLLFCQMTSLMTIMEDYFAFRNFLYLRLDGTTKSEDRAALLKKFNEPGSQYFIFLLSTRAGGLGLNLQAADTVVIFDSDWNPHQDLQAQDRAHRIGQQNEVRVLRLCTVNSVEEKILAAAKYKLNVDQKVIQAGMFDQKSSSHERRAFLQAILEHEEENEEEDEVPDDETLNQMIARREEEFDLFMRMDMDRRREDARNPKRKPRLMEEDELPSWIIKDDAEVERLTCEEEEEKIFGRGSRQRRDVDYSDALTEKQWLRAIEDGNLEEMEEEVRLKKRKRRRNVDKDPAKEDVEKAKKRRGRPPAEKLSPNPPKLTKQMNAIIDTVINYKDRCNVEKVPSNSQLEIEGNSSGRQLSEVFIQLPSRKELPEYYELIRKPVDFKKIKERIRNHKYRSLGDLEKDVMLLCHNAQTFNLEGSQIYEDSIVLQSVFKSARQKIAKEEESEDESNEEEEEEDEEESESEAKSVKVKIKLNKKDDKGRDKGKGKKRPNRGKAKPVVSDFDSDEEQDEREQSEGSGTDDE
The assay can be described thus: HiBiT-BRM cell-based degradation assay (Nano-Glo HiBiT lytic detection, 24 h). The settings on record: HeLa cell line expressing HiBiT-BRM; for DC50: read-out: BRM HiBit Degradation IC50. On the procedure:
Procedure: A stable HeLa cell line expressing HiBiT-BRM was generated. On day 0, 5000 cells were seeded in 40 μL of media into each well of 384-well cell culture plates. On day 1, cells were treated with 120 nL DMSO or 120 nL of 3-fold serially DMSO-diluted compounds (10 points in duplicate with 30 μM as final top dose). Subsequently plates were incubated for 24 h in a standard tissue culture incubator and equilibrated at room temperature for 15 minutes. Nano-GB HiBiT Lytic Detection System (Promega N3050) reagent was freshly prepared and 20 ul was added to each well. Upon addition of this LgBit-containing reagent, the HiBiT and LgBiT proteins associate to form the luminescent NanoBiT luciferase. The plates were shaken for 10 minutes at room temperature and the bioluminescence read using an EnVision plate reader (PerkinElmer).
as §1

T1 sequence (P51532 whole entry, the tested form may be a part): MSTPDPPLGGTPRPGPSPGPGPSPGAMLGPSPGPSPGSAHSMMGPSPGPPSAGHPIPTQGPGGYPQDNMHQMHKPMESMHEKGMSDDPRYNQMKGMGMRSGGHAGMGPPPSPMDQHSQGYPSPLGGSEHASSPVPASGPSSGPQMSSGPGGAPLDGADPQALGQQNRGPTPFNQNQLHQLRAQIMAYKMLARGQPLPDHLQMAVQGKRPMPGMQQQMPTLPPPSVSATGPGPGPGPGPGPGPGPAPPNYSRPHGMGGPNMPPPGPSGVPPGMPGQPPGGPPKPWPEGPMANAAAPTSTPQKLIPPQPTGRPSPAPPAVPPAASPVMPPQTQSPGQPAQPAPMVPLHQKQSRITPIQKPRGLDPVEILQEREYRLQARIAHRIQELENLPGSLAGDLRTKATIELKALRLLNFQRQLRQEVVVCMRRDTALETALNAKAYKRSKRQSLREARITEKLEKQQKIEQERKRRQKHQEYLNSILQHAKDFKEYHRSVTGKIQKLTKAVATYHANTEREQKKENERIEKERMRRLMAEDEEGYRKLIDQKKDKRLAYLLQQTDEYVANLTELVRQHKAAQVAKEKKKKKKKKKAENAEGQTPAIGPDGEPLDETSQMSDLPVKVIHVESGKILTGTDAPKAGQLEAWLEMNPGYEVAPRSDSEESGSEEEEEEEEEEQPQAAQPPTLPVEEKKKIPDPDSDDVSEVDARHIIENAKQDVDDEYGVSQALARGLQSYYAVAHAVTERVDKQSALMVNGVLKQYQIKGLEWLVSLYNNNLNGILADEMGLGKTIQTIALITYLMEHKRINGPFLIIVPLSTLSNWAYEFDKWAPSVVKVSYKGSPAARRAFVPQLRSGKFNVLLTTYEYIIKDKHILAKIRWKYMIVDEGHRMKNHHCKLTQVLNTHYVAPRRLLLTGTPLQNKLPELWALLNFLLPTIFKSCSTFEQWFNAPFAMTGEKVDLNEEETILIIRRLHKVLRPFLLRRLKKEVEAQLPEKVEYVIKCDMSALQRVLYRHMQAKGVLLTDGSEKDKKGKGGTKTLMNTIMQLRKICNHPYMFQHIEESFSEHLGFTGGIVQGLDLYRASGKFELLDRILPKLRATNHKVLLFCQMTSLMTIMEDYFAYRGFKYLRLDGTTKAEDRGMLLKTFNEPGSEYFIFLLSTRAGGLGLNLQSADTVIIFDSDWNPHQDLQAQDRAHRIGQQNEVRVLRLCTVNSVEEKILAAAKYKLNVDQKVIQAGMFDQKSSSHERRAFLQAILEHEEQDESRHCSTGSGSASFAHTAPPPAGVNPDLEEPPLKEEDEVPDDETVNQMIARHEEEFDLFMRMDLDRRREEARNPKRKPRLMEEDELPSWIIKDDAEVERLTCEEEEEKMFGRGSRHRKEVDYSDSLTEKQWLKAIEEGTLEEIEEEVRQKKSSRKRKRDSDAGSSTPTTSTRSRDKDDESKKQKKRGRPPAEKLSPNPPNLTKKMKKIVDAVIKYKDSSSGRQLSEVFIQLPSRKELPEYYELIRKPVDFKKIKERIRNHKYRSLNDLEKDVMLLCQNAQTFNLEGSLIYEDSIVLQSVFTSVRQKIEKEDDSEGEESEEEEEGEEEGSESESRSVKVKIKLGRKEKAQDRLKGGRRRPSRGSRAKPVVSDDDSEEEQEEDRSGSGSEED

Take `Cc1ncsc1-c1ccc([C@H](C)NC(=O)[C@@H]2C[C@@H](O)CN2C(=O)[C@@H](c2cc(N3CCC(N4CC(c5cc6nnc(-c7ccccc7O)cc6[nH]5)C4)CC3)no2)C(C)C)cc1` [Compound 5, (2S,4R)-4-hydroxy-1-((R)-2-(3-(4-(3-(3-(2-hydroxyphenyl)-5H-pyrrolo[3,2-c]pyridazin-6-yl)azetidin-1-yl)piperidin-1-yl)isoxazol-5-yl)-3-methylbutanoyl)-N-((S)-1-(4-(4-methylthiazol-5-yl)phenyl)ethyl)pyrrolidine-2-carboxamide]: in assay [1], the Dmax was > 75% and the DC50 is > 100 nM. Further, at HiBit-BRM fusion protein, the “BRM HiBit Degradation Maximum (%)” value was “A (“A” indicates maximum degradation ≥75%)” and the DC50 is < 10 nM.
On to `Cc1ncsc1-c1ccc([C@H](C)NC(=O)[C@@H]2C[C@@H](O)CN2C(=O)[C@@H](c2cc(-c3cnc(N4CC[C@@H](c5cc6nnc(-c7cccc(Cl)c7O)cc6n5C5CC5)C4)nc3)no2)C(C)C)cc1` [Compound 69, (2S,4R)-1-((R)-2-(3-(2-((R)-3-(3-(3-chloro-2-hydroxyphenyl)-5-cyclopropyl-5H-pyrrolo[3,2-c]pyridazin-6-yl)pyrrolidin-1-yl)pyrimidin-5-yl)isoxazol-5-yl)-3-methylbutanoyl)-4-hydroxy-N-((S)-1-(4-(4-methylthiazol-5-yl)phenyl)ethyl)pyrrolidine-2-carboxamide], for which the Dmax in assay [1] is < 50%. At HiBit-BRM fusion protein, the “BRM HiBit Degradation Maximum (%)” value was “A (“A” indicates maximum degradation ≥75%)” and the DC50 was < 10 nM.
For `Cc1ncsc1-c1ccc([C@H](C)NC(=O)[C@@H]2C[C@@H](O)CN2C(=O)[C@@H](c2cc(-c3cnc(N4CC[C@@H](c5cc6nnc(-c7cc(F)cc(F)c7O)cc6n5C5CC5)C4)nc3)no2)C(C)C)cc1` [Compound 111, (2S,4R)-1-((R)-2-(3-(2-((R)-3-(5-cyclopropyl-3-(3,5-difluoro-2-hydroxyphenyl)-5H-pyrrolo[3,2-c]pyridazin-6-yl)pyrrolidin-1-yl)pyrimidin-5-yl)isoxazol-5-yl)-3-methylbutanoyl)-4-hydroxy-N-((S)-1-(4-(4-methylthiazol-5-yl)phenyl)ethyl)pyrrolidine-2-carboxamide], in that order: < 50%, “A (“A” indicates maximum degradation ≥75%)” and < 10 nM.
Turning to `CC(C)[C@@H](C(=O)N1C[C@H](O)C[C@H]1C(=O)N[C@@H](C)c1ccc(F)cc1)c1cc(N2CC3(CC(c4cc5nnc(-c6ccccc6O)cc5n4C4CCC4)C3)C2)no1` [Compound 63, (2S,4R)-1-((R)-2-(3-(6-(5-cyclobutyl-3-(2-hydroxyphenyl)-5H-pyrrolo[3,2-c]pyridazin-6-yl)-2-azaspiro[3.3]heptan-2-yl)isoxazol-5-yl)-3-methylbutanoyl)-N-((S)-1-(4-fluorophenyl)ethyl)-4-hydroxypyrrolidine-2-carboxamide], in assay [1], the Dmax was < 50%. On HiBit-BRM fusion protein, the “BRM HiBit Degradation Maximum (%)” value is recorded as “A (“A” indicates maximum degradation ≥75%)” and the DC50 was > 10 nM.
Take `Cc1ncsc1-c1ccc([C@H](C)NC(=O)[C@@H]2C[C@@H](O)CN2C(=O)[C@@H](c2cc(N3CCC(c4cc5nnc(-c6ccccc6O)cc5n4C4CC4)CC3)no2)C(C)C)cc1` [Compound 76, (2S,4R)-1-((R)-2-(3-(4-(5-cyclopropyl-3-(2-hydroxyphenyl)-5H-pyrrolo[3,2-c]pyridazin-6-yl)piperidin-1-yl)isoxazol-5-yl)-3-methylbutanoyl)-4-hydroxy-N-((S)-1-(4-(4-methylthiazol-5-yl)phenyl)ethyl)pyrrolidine-2-carboxamide]: the Dmax in assay [1] was < 50%. On HiBit-BRM fusion protein, the “BRM HiBit Degradation Maximum (%)” value is given as “A (“A” indicates maximum degradation ≥75%)” and the DC50 was < 10 nM.
For `Cc1ncsc1-c1ccc([C@H](C)NC(=O)[C@@H]2C[C@@H](O)CN2C(=O)[C@@H](c2cc(N3CC4(CC(c5cc6nnc(-c7ccccc7O)cc6n5C56CC(C5)C6)C4)C3)no2)C(C)C)cc1` [Compound 65, (2S,4R)-1-((R)-2-(3-(6-(5-(bicyclo[1.1.1]pentan-1-yl)-3-(2-hydroxyphenyl)-5H-pyrrolo[3,2-c]pyridazin-6-yl)-2-azaspiro[3.3]heptan-2-yl)isoxazol-5-yl)-3-methylbutanoyl)-4-hydroxy-N-((S)-1-(4-(4-methylthiazol-5-yl)phenyl)ethyl)pyrrolidine-2-carboxamide], in that order: < 50%, “A (“A” indicates maximum degradation ≥75%)” and < 10 nM.
Take `Cc1ncsc1-c1ccc(CNC(=O)[C@@H]2C[C@@H](O)CN2C(=O)[C@@H](c2cc(N3CCC4(CC3)CC(c3cc5nnc(-c6ccccc6O)cc5n3C3CC3)C4)no2)C(C)C)cc1` [Compound 84, (2S,4R)-1-((R)-2-(3-(2-(5-cyclopropyl-3-(2-hydroxyphenyl)-5H-pyrrolo[3,2-c]pyridazin-6-yl)-7-azaspiro[3.5]nonan-7-yl)isoxazol-5-yl)-3-methylbutanoyl)-4-hydroxy-N-(4-(4-methylthiazol-5-yl)benzyl)pyrrolidine-2-carboxamide]: in assay [1], the Dmax is < 50%. Also, on HiBit-BRM fusion protein, the “BRM HiBit Degradation Maximum (%)” value is reported as “A (“A” indicates maximum degradation ≥75%)” and the DC50 is < 10 nM.
Turning to `Cc1ncsc1-c1ccc([C@H](C)NC(=O)[C@@H]2C[C@@H](O)CN2C(=O)[C@@H](c2cc(-c3cnc(N4CCC(c5cc6nnc(-c7ccccc7O)cc6n5C5CCC5)CC4)nc3)no2)C(C)C)cc1` [Compound 46], in assay [1], the Dmax was < 50%. Further, the “BRM HiBit Degradation Maximum (%)” value on HiBit-BRM fusion protein is “C (“C” indicates maximum degradation <50%)”.
Regarding `Cc1ncsc1-c1ccc([C@H](C)NC(=O)[C@@H]2C[C@@H](O)CN2C(=O)[C@H](C(C)C)n2cc(-c3cnc(N4CC[C@@H](c5cc6nnc(-c7ccccc7O)cc6n5C5CC5)C4)nc3)nn2)cc1` [Compound 71, (2S,4R)-1-((S)-2-(4-(2-((R)-3-(5-cyclopropyl-3-(2-hydroxyphenyl)-5H-pyrrolo[3,2-c]pyridazin-6-yl)pyrrolidin-1-yl)pyrimidin-5-yl)-1H-1,2,3-triazol-1-yl)-3-methylbutanoyl)-4-hydroxy-N-((S)-1-(4-(4-methylthiazol-5-yl)phenyl)ethyl)pyrrolidine-2-carboxamide], in assay [1], the Dmax is > 75% and the DC50 was < 10 nM. For the same compound, at HiBit-BRM fusion protein, the “BRM HiBit Degradation Maximum (%)” value was “A (“A” indicates maximum degradation ≥75%)” and the DC50 was < 10 nM.
For `Cc1ncsc1-c1ccc([C@H](C)NC(=O)[C@@H]2C[C@@H](O)CN2C(=O)[C@@H](c2cc(N3CCC(CN4CC(c5cc6nnc(-c7ccccc7O)cc6[nH]5)C4)CC3)no2)C(C)C)cc1` [Compound 4, (2S,4R)-4-hydroxy-1-((R)-2-(3-(4-((3-(3-(2-hydroxyphenyl)-5H-pyrrolo[3,2-c]pyridazin-6-yl)azetidin-1-yl)methyl)piperidin-1-yl)isoxazol-5-yl)-3-methylbutanoyl)-N-((S)-1-(4-(4-methylthiazol-5-yl)phenyl)ethyl)pyrrolidine-2-carboxamide], in assay [1], the Dmax is > 50% and the DC50 was > 100 nM. In addition, on HiBit-BRM fusion protein, the “BRM HiBit Degradation Maximum (%)” value is “A (“A” indicates maximum degradation ≥75%)” and the DC50 was > 10 nM.
For `Cc1ncsc1-c1ccc([C@H](C)NC(=O)[C@@H]2C[C@@H](O)CN2C(=O)[C@@H](c2cc(N3CC4(CC(c5cc6nnc(-c7ccccc7O)cc6n5C5(C)CC5)C4)C3)no2)C(C)C)cc1` [Compound 66, (2S,4R)-4-hydroxy-1-((R)-2-(3-(6-(3-(2-hydroxyphenyl)-5-(1-methylcyclopropyl)-5H-pyrrolo[3,2-c]pyridazin-6-yl)-2-azaspiro[3.3]heptan-2-yl)isoxazol-5-yl)-3-methylbutanoyl)-N-((S)-1-(4-(4-methylthiazol-5-yl)phenyl)ethyl)pyrrolidine-2-carboxamide], in that order: > 50%, > 10 nM, “A (“A” indicates maximum degradation ≥75%)” and < 10 nM.
On to `Cc1ncsc1-c1ccc([C@H](C)NC(=O)[C@@H]2C[C@@H](O)CN2C(=O)[C@@H](c2cc(OCCCN3CC(c4cc5nnc(-c6ccccc6O)cc5[nH]4)C3)no2)C(C)C)cc1` [Compound 3, (2S,4R)-4-hydroxy-1-((R)-2-(3-(3-(3-(3-(2-hydroxyphenyl)-5H-pyrrolo[3,2-c]pyridazin-6-yl)azetidin-1-yl)propoxy)isoxazol-5-yl)-3-methylbutanoyl)-N-((S)-1-(4-(4-methylthiazol-5-yl)phenyl)ethyl)pyrrolidine-2-carboxamide, formic acid], for which, on HiBit-BRM fusion protein, the “BRM HiBit Degradation Maximum (%)” value is reported as “B (“B” indicates maximum degradation ≥50%)” and the DC50 was > 1000 nM.

Source of the values: patent US20250302832A1, “PYRAZINE DERIVATIVES AND USES THEREOF” (FOGHORN THERAPEUTICS INC., priority 2022, published 2025).
